The values that follow come from patent publication US7129271B2, “Compounds for pest control and methods for their use” (The United States of America as represented by the …, priority 2000, dated 2006).

One assay concerns Aedes aegypti adults. Briefly: Residual activity, treated bottles aged before loading (Example 9). In kind it is in vivo. As for the experimental part:
(§1) Mosquit Bioassay. Adult mosquitoes were tested using the bottle bioassay method of Brogden, W. G., and McAllister, J. C., J. Am. Mosq. Control Assoc. 14:159–64 (1998), with minor modifications. Natural product extracts were two-fold serially diluted for a total of 8 concentrations ranging from 0.002% to 0.25% in 1.5 ml of acetone. Individual dilutions were added to 250 ml Wheaton glass bottles and capped. Bottles were manipulated to evenly coat all inner surfaces. The caps were removed and bottles were allowed to air-dry overnight. Once bottles were completely dry, 10–50 adult mosquitoes were aspirated into the bottles. Mosquitoes were held in the bottles for 24 h at 23° C. and 85% RH. Morbidity and mortality were recorded at 15, 30, 45, and 60 min and 24 hour intervals. One bottle for each replicate was treated with acetone only and served as a control. The dose-mortality data was evaluated with probit analysis, using the LdP Line software, to determine LC50 and LC90 values.

Another assay has as its system X. cheopis adults. In words: Flea bioassay, treated vials (Example 9). Format: in vivo. To be noted: for LC90: read-out: LC90. As for the experimental part:
Flea Colonies. Adult X. cheopis fleas (1–3 wk old) were obtained from a colony founded more than eight years ago using adults received from Tom Schwan, Rocky Mountain Laboratories, Hamilton, Mont. The area from which these original adult fleas were obtained, and the resulting colony, have no known histories of pesticide exposure.
Tick and Flea Bioassays. Concentrations of the compounds were prepared by 2-fold serial dilutions of a 0.5% (wt:vol) solution of the extracts in acetone. […] A control treated with acetone only was run with each series. Tick and flea susceptibility was evaluated using a modified disposable pipette method. See, Barnard, D. R., et al., J. Econ. Entomol.
(§2) The inner surface of 2-dram friction cap vials were treated with the compound/acetone solution, or acetone only as a control, and left to air-dry overnight. Three to 4 holes were made in the plastic cap to allow for air exchange. Nymphal ticks and adult fleas were then placed directly into the vials using forceps. Vials containing ticks or fleas were placed in desiccators for 24 h at 21° C. and 90% RH. Morbidity and mortality was recorded at 1, 2, 4, 8, and 24 h after initial exposure.

The subject of assay [1] is ticks, fleas, and mosquitoes. Briefly: Residual activity, overall statements for ticks, fleas and mosquitoes (Example 9). Conditions: 1 to 4 weeks after treatment.
The test system of another assay is I. scapularis nymphs. Briefly: Tick bioassay, modified disposable pipette method, treated vials (Example 9). Format: in vivo, Ixodes scapularis. Conditions: for LC90: read-out: LC90. As for the experimental part: Tick Colonies. […] There was no known pesticide used at this location. Ticks were maintained at 21° C., 90% RH, and received a 16:8 h (light:dark) cycle as described in […]. Med. […] Tick and Flea Bioassays. […] A control treated with acetone only was run with each series. Tick and flea susceptibility was evaluated using a modified disposable pipette method. See, Barnard, D. R., et al., J. Econ. […] Three to 4 holes were made in the plastic cap to allow for air exchange. Nymphal ticks and adult fleas were then placed directly into the vials using forceps. Vials containing ticks or fleas were placed in desiccators for 24 h at 21° C. and 90% RH. […] For each time point, if ticks were incapable of movement, maintaining normal posture, leg coordination, ability to right themselves, or any signs of life, they were considered moribund or dead.

The test system of assay [2] is Xenopsylla cheopis adults. In words: Residual activity, treated vials aged before loading (Example 9). Format: in vivo. As for the experimental part:
(§3) Tick and Flea Bioassays. Concentrations of the compounds were prepared by 2-fold serial dilutions of a 0.5% (wt:vol) solution of the extracts in acetone. The approximate toxicity of individual compounds was determined with a total of 8 doses ranging from 0.002% to 0.25%. […] A control treated with acetone only was run with each series. Tick and flea susceptibility was evaluated using a modified disposable pipette method. See, Barnard, D. R., et al., J. Econ. Entomol. 74:466–69 (1981).
as §2, with “Groups of 10 nymphal I. scapularis and X. cheopis fleas were used in all tests, resulting in a total of 5,240 nymphs and 4,860 fleas exposed to the compounds. The” for “The”

The next assay relates to Ixodes scapularis nymphs. Described as above. In kind it is in vivo. The protocol: as §3
as §2, with “Groups of 10 nymphal I. scapularis and X. cheopis fleas were used in all tests, resulting in a total of 5,240 nymphs and 4,860 fleas exposed to the compounds. The” for “The”

For another assay, the system named is Ae. aegypti adults. In words: Mosquito bottle bioassay (Example 9). In kind it is in vivo. As for the experimental part: Mosquito Colonies. Aedes aegypti adult mosquitoes were obtained from an existing colony at the Centers for Disease Control and Prevention (CDC), Division of Vector-Borne Infectious Diseases (DVBID), Fort Collins, Colo. This colony has been maintained for over fifteen years with no known history of exposure to pesticides. Mosquitoes were reared at 28° C., 85% RH, and a 14:10 h (light:dark) cycle. Larvae were grown in de-ionized water and fed ground liver powder solution ad libitum. Fourth instars were removed and placed in emergence cages, and adults were fed a 2% sucrose solution until assayed. Adults were exposed to test products at 4–7 d after emergence.
as §1

The mark [3] stands for this setting: residual activity at 1 week after treatment.
The mark [4] stands for this setting: residual activity at 2 weeks after treatment.
[5] abbreviates: residual activity at 4 weeks after treatment.
Where [6] appears, read: 24 h exposure, 95% CI in parentheses.
[7] abbreviates: Xenopsylla cheopis, 24 h, 24 h exposure, 95% CI in parentheses, read-out: LC50.
Where [8] appears, read: Xenopsylla cheopis, 24 h, 24 h exposure, 95% CI in parentheses.
[9] abbreviates: Ixodes scapularis, 24 h, 24 h exposure, 95% CI in parentheses.
[10] abbreviates: Aedes aegypti, 24 h, 24 h exposure, 95% CI in parentheses, read-out: LC50.
Setting [11] is: Aedes aegypti, 24 h, 24 h exposure, 95% CI in parentheses, read-out: LC90 (the source's name).

Structures are written as SMILES. ≈ marks a conversion by molar mass, not a printed value. Like-named read-outs stand apart in the source and are kept apart here.

`C=C(C)[C@@H]1CCC2=CC(=O)C[C@@H](C)[C@]2(C)C1` [Compound 8, Nootkatone]: the LC50 is listed as 0.0065 percent concentration, wt:vol in the assay on Aedes aegypti adults (setting [3]); 0.0067 (0.0058– percent concentration, wt:vol in the assay on Aedes aegypti adults (setting [4]); 0.02 percent concentration, wt:vol with Aedes aegypti adults (setting [5]); 0.0029 (0.002–0.0038) percent concentration, wt:vol with X. cheopis adults (setting [6]); 0.0029 percent concentration, wt:vol in the assay with X. cheopis adults (24 h exposure, 95% CI in parentheses, listed as compound 8); 0.0061 (0.005–0.0072) percent concentration, wt:vol with I. scapularis nymphs (setting [6]). Moreover, the LC50 in assay [2] (setting [3]) is 0.02 (0.016–0.026) percent concentration, wt:vol; in assay [2] (setting [4]), 0.018 (0.013–0.024) percent concentration, wt:vol; in assay [2] (setting [5]) it was 0.035 (0.026–0.051) percent concentration, wt:vol; with Ixodes scapularis nymphs (setting [3]) it was 0.025 percent concentration, wt:vol; in the assay with Ixodes scapularis nymphs (setting [4]), 0.019 (0.014–0.024) percent concentration, wt:vol; with Ixodes scapularis nymphs (setting [5]) it was 0.25 percent concentration, wt:vol. Besides, the LC90 is reported as 0.014 percent concentration, wt:vol in the assay with Aedes aegypti adults (setting [3]); 0.012 (0.01–0.015) percent concentration, wt:vol in the assay with Aedes aegypti adults (setting [4]); 0.29 percent concentration, wt:vol in the assay on Aedes aegypti adults (setting [5]); 0.053 (0.04–0.082) percent concentration, wt:vol in assay [2] (setting [3]); 0.081 (0.054–0.156) percent concentration, wt:vol in assay [2] (setting [4]); 0.161 (0.098–0.387) percent concentration, wt:vol in assay [2] (setting [5]). The LC90 with Ixodes scapularis nymphs (setting [3]) is given as 0.071 percent concentration, wt:vol; in the assay on Ixodes scapularis nymphs (setting [4]) it was 0.056 (0.04–0.094) percent concentration, wt:vol; with Ixodes scapularis nymphs (setting [5]), 0.71 percent concentration, wt:vol. For the same compound, in assay [1], the “residual activity (in words)” value was “considerable biological activity”.

In the case of `C[C@@H]1CC(=O)C2OC23CCC(C2(C)CO2)C[C@@]13C` (some centres unmarked) [Compound 18, nootkatone-1,10-11,12-diepoxide], the LC50 was 640 µg/mL (≈ 2560 µM) in the assay on X. cheopis adults (setting [7]); 610 µg/mL (≈ 2440 µM) in the assay with I. scapularis nymphs (Ixodes scapularis, 24 h); 590 µg/mL (≈ 2360 µM) in the assay with Ae. aegypti adults (setting [10]). In addition, the LC90 in the assay with X. cheopis adults (setting [8]) worked out at 4840 µg/mL (≈ 19300 µM); in the assay with I. scapularis nymphs (setting [9]), 2450 µg/mL (≈ 9790 µM). Further, in the assay with Ae. aegypti adults (setting [11]), the EC90 is 1140 µg/mL (≈ 4550 µM).

`C=C(C)[C@@H]1CCC2=CC(=O)C[C@@H](C)[C@]2(C)C1` [Compound 9, Nootkatone]: the LC50 in the assay with Aedes aegypti adults (setting [3]) is given as 0.0089 (0.0077–0.01) percent concentration, wt:vol; with Aedes aegypti adults (setting [4]) it was 0.0042 (0.0036– percent concentration, wt:vol; with Aedes aegypti adults (setting [5]), 0.018 percent concentration, wt:vol; in the assay with X. cheopis adults (setting [6]), 0.0066 (0.0046–0.0086) percent concentration, wt:vol; with I. scapularis nymphs (setting [6]), 0.0033 (0.0027–0.004) percent concentration, wt:vol; in the assay on Ae. aegypti adults (setting [6]) it was 0.0075 percent concentration, wt:vol. Further, the LC50 is given as 0.043 percent concentration, wt:vol in assay [2] (setting [3]); 0.027 percent concentration, wt:vol in assay [2] (setting [4]); 0.0084 (0.005–0.013) percent concentration, wt:vol in the assay with Ixodes scapularis nymphs (setting [3]); 0.0089 (0.0068–0.012) percent concentration, wt:vol in the assay on Ixodes scapularis nymphs (setting [4]). The LC90 in the assay on Aedes aegypti adults (setting [3]) was 0.018 (0.015–0.023) percent concentration, wt:vol; in the assay with Aedes aegypti adults (setting [4]), 0.0088 (0.0074–0.011) percent concentration, wt:vol; in the assay on Aedes aegypti adults (setting [5]), 0.036 percent concentration, wt:vol; in assay [2] (setting [3]), 0.259 percent concentration, wt:vol; in assay [2] (setting [4]) it was 0.085 percent concentration, wt:vol; in assay [2] (setting [5]) it was 0.111 (0.08–0.193) percent concentration, wt:vol. Moreover, the LC90 is 0.08 (0.045–0.22) percent concentration, wt:vol with Ixodes scapularis nymphs (setting [3]) and 0.027 (0.02–0.045) percent concentration, wt:vol in the assay with Ixodes scapularis nymphs (setting [4]). For the same compound, in assay [1], the “residual activity (in words)” value is listed as “considerable biological activity”.

Regarding `Cc1ccc(C(C)C)cc1O` [Compound 4, Carvacrol], the LC50 in the assay on X. cheopis adults (Xenopsylla cheopis, 24 h) was 59 µg/mL (≈ 393 µM); with I. scapularis nymphs (Ixodes scapularis, 24 h), 68 µg/mL (≈ 453 µM); in the assay on Ae. aegypti adults (Aedes aegypti, 24 h) it was 51 µg/mL (≈ 339 µM). Besides, the LC90 was determined as 140 µg/mL (≈ 932 µM) with X. cheopis adults (Xenopsylla cheopis, 24 h) and 140 µg/mL (≈ 932 µM) in the assay with I. scapularis nymphs (Ixodes scapularis, 24 h). Moreover, in the assay on Ae. aegypti adults (Aedes aegypti, 24 h, read-out: LC90), the EC90 came out at 140 µg/mL (≈ 932 µM).

For the compound `C=C(C=O)C1CCC2=CCC[C@@H](C)[C@]2(C)C1` (some centres unmarked) [Compound 15, valencene-13-aldehyde], the LC50 in the assay with Aedes aegypti adults (setting [3]) was 0.011 (0.0095–0.013) percent concentration, wt:vol; in the assay with Aedes aegypti adults (setting [4]) it was 0.014 (0.0074–0.025) percent concentration, wt:vol; in the assay with X. cheopis adults (setting [7]), 49 µg/mL (≈ 224 µM); in the assay on I. scapularis nymphs (Ixodes scapularis, 24 h), 59 µg/mL (≈ 270 µM); in the assay with Ae. aegypti adults (setting [10]), 24 µg/mL (≈ 110 µM); in assay [2] (setting [3]) it was 0.059 percent concentration, wt:vol. Besides, in the assay with Ixodes scapularis nymphs (setting [3]), the LC50 was 0.026 (0.02–0.033) percent concentration, wt:vol. In addition, the LC90 in the assay on Aedes aegypti adults (setting [3]) is 0.027 (0.022–0.037) percent concentration, wt:vol; in the assay with Aedes aegypti adults (setting [4]), 0.037 (0.029–0.127) percent concentration, wt:vol; with X. cheopis adults (setting [8]), 85 µg/mL (≈ 389 µM); in the assay with I. scapularis nymphs (setting [9]), 170 µg/mL (≈ 779 µM); in assay [2] (setting [3]), 0.148 percent concentration, wt:vol; in the assay with Ixodes scapularis nymphs (setting [3]), 0.072 (0.052–0.121) percent concentration, wt:vol. The “residual activity (in words)” value in assay [1] is given as “considerable biological activity”. Further, the EC90 with Ae. aegypti adults (setting [11]) was determined as 34 µg/mL (≈ 156 µM).

Regarding `C=C(C)C1CCC23OC2C(=O)C[C@@H](C)[C@]3(C)C1` (some centres unmarked) [Compound 17, nootkatone-1,10-epoxide], the LC50 came out at 170 µg/mL (≈ 725 µM) in the assay with X. cheopis adults (setting [7]); 200 µg/mL (≈ 853 µM) in the assay on I. scapularis nymphs (Ixodes scapularis, 24 h); 2230 µg/mL (≈ 9520 µM) with Ae. aegypti adults (setting [10]). The LC90 in the assay with X. cheopis adults (setting [8]) was 590 µg/mL (≈ 2520 µM); with I. scapularis nymphs (setting [9]), 550 µg/mL (≈ 2350 µM). Further, the EC90 in the assay with Ae. aegypti adults (setting [11]) came to 20000 µg/mL (≈ 85400 µM).
